Results reported in ChEMBL document CHEMBL1130638, “Hepatoprotective, superoxide scavenging, and antioxidative activities of aromatic constituents from the bark of Betula platyphylla var. japonica” (1998).

Legend:
Format in all cases: functional
Rattus norvegicus [1] = organism: Rattus norvegicus; experiment: Compound was tested for hepatoprotective activity against D-GalN-induced cytotoxicity in primary cultured rat hepatocytes at 30 uM dose; details: Hepatocyte
Rattus norvegicus [2] = organism: Rattus norvegicus; experiment: Compound was tested for hepatoprotective activity against D-GalN-induced cytotoxicity in primary cultured rat hepatocytes at 100 uM dose; details: Hepatocyte
Rattus norvegicus [3] = organism: Rattus norvegicus; experiment: Compound was tested for hepatoprotective activity against D-GalN-induced cytotoxicity in primary cultured rat hepatocytes at 10 uM dose; details: Hepatocyte
Rattus norvegicus [4] = organism: Rattus norvegicus; experiment: Compound was tested for hepatoprotective activity against D-GalN-induced cytotoxicity in primary cultured rat hepatocytes at 3 uM dose; details: Hepatocyte
Rattus norvegicus [5] = organism: Rattus norvegicus; experiment: Compound was tested for O2- scavenging activity using NBT method at a concentration of 20 ug/mL.
Rattus norvegicus [6] = organism: Rattus norvegicus; experiment: Compound was tested for antioxidative activity using TBA method at a concentration of 200 ug/mL.
Rattus norvegicus [7] = organism: Rattus norvegicus; experiment: Compound was tested for antioxidative activity using TBA method at a concentration of 200 ug/ml.
Rattus norvegicus [8] = organism: Rattus norvegicus; experiment: Compound was tested for O2- scavenging activity using NBT method at a concentration of 20 ug/ml.

Compound | inhibition at 30 µM (Rattus norvegicus [1]) [%] | inhibition at 100 µM (Rattus norvegicus [2]) [%] | inhibition at 10 µM (Rattus norvegicus [3]) [%] | inhibition at 3 µM (Rattus norvegicus [4]) [%] | inhibition (Rattus norvegicus [5]) [%] | Inhibition (Rattus norvegicus [6]) [%] | Inhibition (Rattus norvegicus [7]) [%] | inhibition (Rattus norvegicus [8]) [%]
OC[C@@]1(O)CO[C@@H](OC[C@H]2O[C@@H](O[C@H](CCCCc3ccc(O)cc3)CCc3ccc(O)cc3)[C@H](O)[C@H](O)[C@H]2O)[C@@H]1O | 43.9 | 55.3 | 38.4 | 28.3 |  |  |  | 
C[C@@H](CCc1ccc(O)cc1)O[C@@H]1O[C@H](CO[C@@H]2O[C@@H](CO)[C@H](O)[C@H]2O)[C@@H](O)[C@H](O)[C@H]1O | 9.6 | 5.4 | 3.6 | 10.1 | 4 |  |  | 
O=C1c2c(O)cc(O)cc2O[C@H](c2ccc(O)c(O)c2)[C@H]1O [(+)-TAXIFOLIN] |  |  |  |  | 93.8 | 37 |  | 
COc1cc([C@@H]2c3c(cc(OC)c(O)c3OC)C[C@H](CO)[C@H]2CO[C@H]2O[C@@H](CO)[C@@H](O)[C@H](O)[C@@H]2O)cc(OC)c1O | 10.5 | 28.9 | 7.6 | 8.3 | 58.8 | 87.2 |  | 
Oc1ccc([C@H]2Oc3cc(OC4OCC(O)C(O)C4O)cc(O)c3C[C@@H]2O)cc1O (stereo partly specified) | 8.5 | 9.4 | 8.8 | 4.8 | 92.9 | 50.1 |  | 
COc1cc(C(C)(C)C)c(O)c(C(C)(C)C)c1 |  |  |  |  |  | 88 |  | 
C[C@H](CCc1ccc(O)cc1)O[C@@H]1O[C@H](CO)[C@@H](O)[C@H](O)[C@H]1O | 4.9 | -0.8 | 10.1 | 4.7 |  |  |  | 
C[C@@H](CCc1ccc(O)cc1)O[C@@H]1O[C@H](CO[C@@H]2OC[C@](O)(CO)[C@H]2O)[C@H](O)[C@@H](O)[C@H]1O | 0.7 | -4.5 | 1.7 | 3.6 | 10.8 | 21.8 |  | 
C[C@H](CCc1ccc(O)cc1)O[C@@H]1O[C@H](CO[C@@H]2O[C@H](CO)[C@@H](O)[C@@H]2O)[C@H](O)[C@@H](O)[C@H]1O | 7.5 | 6.8 | 6.2 | 3.4 | 5.1 | 98.2 |  | 
C[C@H](CCc1ccc(O)cc1)O[C@@H]1O[C@H](CO[C@@H]2OC[C@](O)(CO)[C@H]2O)[C@H](O)[C@@H](O)[C@H]1O | 2.1 | -2.3 | -1.6 | 1.4 | 1.8 | 93.5 |  | 
OC[C@H]1O[C@@H](O[C@@H](CCc2ccc(O)cc2)C[C@H](O)CCc2ccc(O)cc2)[C@H](O)[C@H](O)[C@H]1O | 27.3 | 74.7 | 14.1 | 16.2 |  |  | 56.3 | 1
COc1cc([C@H]2c3c(cc(OC)c(O)c3OC)C[C@@H](CO)[C@@H]2CO[C@H]2O[C@@H](CO)[C@@H](O)[C@H](O)[C@@H]2O)cc(OC)c1O | 24.1 | 26.9 | 24.8 | 22.3 | 67.3 | 96.8 |  | 
OC[C@H]1O[C@@H](O[C@@H](CCc2ccc(O)cc2)C[C@@H](O)CCc2ccc(O)cc2)[C@H](O)[C@H](O)[C@H]1O | 21.7 | 37.4 | 7.4 | 9.9 |  |  | 61.8 | 1.8
Cc1c(C)c2c(c(C)c1O)CC[C@@](C)(CCC[C@H](C)CCC[C@H](C)CCCC(C)C)O2 [ALPHA-TOCOPHEROL] |  |  |  |  |  | 56.7 |  | 
Cc1cc(C(C)(C)C)c(O)c(C(C)(C)C)c1 [BUTYLATED HYDROXYTOLUENE] |  |  |  |  |  | 97 |  | 
